In ChEMBL document CHEMBL5113472, “Structure-activity relationship studies of [1,2,5]oxadiazolo[3,4-b]pyrazine-containing polymyxin-selective resistance-modifying agents” (Bioorg Med Chem Lett, 2022):
Converted amounts (≈) assume the structure as drawn.

Columns and labels:
[1] = system: Escherichia coli; experiment: Potentiation of colistin-induced antibacterial activity against Escherichia coli AR0493 harboring mcr-1 plasmid assessed as minimum resensitizing concentration; assay type: functional
[2] = Selectivity index, ratio of GI50 for cytotoxicity against human HeLa cells to MRC for Potentiation of colistin-induced antibacterial activity against Escherichia coli AR0493 harboring mcr-1 plasmid; assay type: toxicity, cell-based; settings: read-out: Selectivity Index
[3] = system: Escherichia coli; experiment: Antibacterial activity against Escherichia coli AR0493 harboring mcr-1 plasmid assessed as inhibition of bacterial growth; assay type: functional
[4] = Cytotoxicity against human HeLa cells assessed as inhibition of cell growth by cell viability assay; assay type: toxicity, cell-based
[5] = system: Pseudomonas aeruginosa; experiment: Potentiation of colistin-induced antibacterial activity against Pseudomonas aeruginosa AR0239 assessed as colistin MIC at 1 ug/ml; assay type: functional; settings: dose 1 µg/ml
[6] = system: Pseudomonas aeruginosa; experiment: Potentiation of colistin-induced antibacterial activity against Pseudomonas aeruginosa AR0257 assessed as colistin MIC at 1 ug/ml; assay type: functional; settings: dose 1 µg/ml
[7] = system: Escherichia coli; experiment: Potentiation of colistin-induced antibacterial activity against Escherichia coli AR0493 harboring mcr-1 plasmid assessed as colistin MIC at 1 ug/ml; assay type: functional; settings: dose 1 µg/ml
[8] = system: Salmonella typhimurium; experiment: Potentiation of colistin-induced antibacterial activity against Salmonella Typhimurium AR0539 harboring mcr-3 plasmid assessed as colistin MIC at 1 ug/ml; assay type: functional, Salmonella enterica subsp. enterica serovar Typhimurium; settings: Salmonella enterica, dose 1 µg/ml
[9] = system: Klebsiella pneumoniae; experiment: Potentiation of colistin-induced antibacterial activity against Klebsiella pneumoniae AR0497 harboring mcr-1 plasmid assessed as colistin MIC at 1 ug/ml; assay type: functional; settings: dose 1 µg/ml
[10] = system: Escherichia coli; experiment: Potentiation of colistin-induced antibacterial activity against Escherichia coli AR0538 harboring mcr-2 plasmid assessed as colistin MIC at 1 ug/ml; assay type: functional; settings: dose 1 µg/ml
[11] = system: Acinetobacter baumannii; experiment: Potentiation of colistin-induced antibacterial activity against Acinetobacter baumannii AR0310 assessed as colistin MIC at 1 ug/ml; assay type: functional; settings: dose 1 µg/ml
[12] = system: Salmonella typhimurium; experiment: Potentiation of colistin-induced antibacterial activity against Salmonella Typhimurium AR0635 harboring mcr-4 plasmid assessed as colistin MIC at 1 ug/ml; assay type: functional, Salmonella enterica subsp. enterica serovar Typhimurium; settings: Salmonella enterica, dose 1 µg/ml
[13] = system: Salmonella typhimurium; experiment: Antibacterial activity against Salmonella Typhimurium AR0539 harboring mcr-3 plasmid assessed as inhibition of bacterial growth; assay type: functional, organism-based; settings: Salmonella enterica subsp. enterica serovar Typhimurium
[14] = system: Acinetobacter baumannii; experiment: Antibacterial activity against Acinetobacter baumannii AR0310 assessed as inhibition of bacterial growth; assay type: functional, organism-based
[15] = system: Salmonella typhimurium; experiment: Antibacterial activity against Salmonella Typhimurium AR0635 harboring mcr-4 plasmid assessed as inhibition of bacterial growth; assay type: functional, organism-based; settings: Salmonella enterica subsp. enterica serovar Typhimurium
[16] = system: Pseudomonas aeruginosa; experiment: Antibacterial activity against Pseudomonas aeruginosa AR0239 assessed as inhibition of bacterial growth; assay type: functional, organism-based
[17] = system: Klebsiella pneumoniae; experiment: Antibacterial activity against Klebsiella pneumoniae AR0497 harboring mcr-1 plasmid assessed as inhibition of bacterial growth; assay type: functional, organism-based
[18] = system: Escherichia coli; experiment: Antibacterial activity against Escherichia coli AR0538 harboring mcr-2 plasmid assessed as inhibition of bacterial growth; assay type: functional, organism-based
[19] = system: Pseudomonas aeruginosa; experiment: Antibacterial activity against Pseudomonas aeruginosa AR0257 assessed as inhibition of bacterial growth; assay type: functional, organism-based

**Q.** With `COc1ccccc1Nc1nc2nonc2nc1Nc1ccccc1OC` as the molecule, how does the MRC [1] read?
**A.** >64 µg/mL

**Q.** Which MRC [1] does the source give for `Cc1ccc(Nc2nc3nonc3nc2O)cc1` here?
**A.** 64 µg/mL

**Q.** For `Cc1cccc(Nc2nc3nonc3nc2Nc2cccc(C)c2)c1`, which selectivity ratio [2] is on record?
**A.** 30

**Q.** What about the MRC [1] of the same molecule?
**A.** 0.5 µg/mL

**Q.** What about the MIC [3] of the same molecule?
**A.** > 64 µg/mL

**Q.** And the GI50 [4]?
**A.** 15 µg/mL (≈ 45.1 µM)

**Q.** Which MRC [1] does the source give for `FC(F)(F)Oc1ccccc1Nc1nc2nonc2nc1Nc1ccccc1OC(F)(F)F` here?
**A.** >64 µg/mL

**Q.** With `COc1ccccc1Nc1nc2nonc2nc1O` as the molecule, how does the selectivity ratio [2] read?
**A.** > 25

**Q.** And the MRC [1]?
**A.** 4 µg/mL

**Q.** What about the MIC [3] of the same molecule?
**A.** > 64 µg/mL

**Q.** What about the GI50 [4] of the same molecule?
**A.** > 100 µg/mL

**Q.** For `Oc1nc2nonc2nc1Nc1cccc(OC(F)(F)F)c1`, which selectivity ratio [2] is on record?
**A.** 6

**Q.** And the MRC [1]?
**A.** 4 µg/mL

**Q.** What about the MIC [3] of the same molecule?
**A.** > 64 µg/mL

**Q.** And the GI50 [4]?
**A.** 24 µg/mL (≈ 76.6 µM)

**Q.** With `COc1ccc(Nc2nc3nonc3nc2Nc2ccc(OC)cc2)cc1` as the molecule, how does the MRC [1] read?
**A.** >64 µg/mL

**Q.** For `Clc1ccc(Nc2nc3nonc3nc2Nc2ccc(Cl)cc2)cc1`, which MIC [5] is on record?
**A.** 1 µg/mL

**Q.** And the MIC [6]?
**A.** 2 µg/mL

**Q.** What about the MIC [7] of the same molecule?
**A.** 1 µg/mL

**Q.** What about the MIC [8] of the same molecule?
**A.** 2 µg/mL

**Q.** And the MIC [9]?
**A.** 1 µg/mL

**Q.** And the selectivity ratio [2]?
**A.** 56

**Q.** And the MIC [10]?
**A.** 2 µg/mL

**Q.** What about the MRC [1] of the same molecule?
**A.** 0.5 µg/mL

**Q.** And the MIC [3]?
**A.** > 64 µg/mL

**Q.** And the MIC [11]?
**A.** 0.25 µg/mL

**Q.** And the GI50 [4]?
**A.** 28 µg/mL (≈ 75 µM)

**Q.** What about the MIC [12] of the same molecule?
**A.** 1 µg/mL

**Q.** With `Oc1nc2nonc2nc1Nc1ccc(F)cc1` as the molecule, how does the MRC [1] read?
**A.** 32 µg/mL

**Q.** For `Oc1nc2nonc2nc1Nc1cccc(F)c1`, which MRC [1] is on record?
**A.** 64 µg/mL

**Q.** Which MRC [1] does the source give for `Clc1ccccc1Nc1nc2nonc2nc1Nc1ccccc1Cl` here?
**A.** 8 µg/mL

**Q.** Which results are given for `FC(F)(F)Oc1cccc(Nc2nc3nonc3nc2Nc2cccc(OC(F)(F)F)c2)c1`?
**A.** selectivity ratio [2]: 17; MRC [1]: 0.25 µg/mL; MIC [3]: > 64 µg/mL; GI50 [4]: 4.3 µg/mL (≈ 9.1 µM)

**Q.** Which MRC [1] does the source give for `Oc1nc2nonc2nc1Nc1ccccc1Cl` here?
**A.** 16 µg/mL

**Q.** With `Oc1nc2nonc2nc1Nc1ccc(Cl)cc1` as the molecule, how does the MRC [1] read?
**A.** 32 µg/mL

**Q.** For `Oc1nc2nonc2nc1Nc1ccccc1`, which MRC [1] is on record?
**A.** >64 µg/mL

**Q.** With `Oc1nc2nonc2nc1Nc1ccc(OC(F)(F)F)cc1` as the molecule, how does the MRC [1] read?
**A.** 16 µg/mL

**Q.** With `Clc1cccc(Nc2nc3nonc3nc2Nc2cccc(Cl)c2)c1` as the molecule, how does the MIC [5] read?
**A.** 1 µg/mL

**Q.** And the MIC [6]?
**A.** 2 µg/mL

**Q.** What about the MIC [7] of the same molecule?
**A.** 1 µg/mL

**Q.** And the MIC [8]?
**A.** 1 µg/mL

**Q.** What about the MIC [9] of the same molecule?
**A.** 1 µg/mL

**Q.** What about the selectivity ratio [2] of the same molecule?
**A.** 44

**Q.** What about the MIC [10] of the same molecule?
**A.** 1 µg/mL

**Q.** What about the MIC [3] of the same molecule?
**A.** > 64 µg/mL

**Q.** What about the MIC [11] of the same molecule?
**A.** 0.25 µg/mL

**Q.** What about the GI50 [4] of the same molecule?
**A.** 11 µg/mL (≈ 29.5 µM)

**Q.** And the MIC [12]?
**A.** 1 µg/mL

**Q.** For `Oc1nc2nonc2nc1Nc1ccccc1F`, which MRC [1] is on record?
**A.** 64 µg/mL

**Q.** Which MRC [1] does the source give for `Cc1ccccc1Nc1nc2nonc2nc1O` here?
**A.** 64 µg/mL

**Q.** With `COc1ccccc1Nc1nc2nonc2nc1Nc1cccc(OC(F)(F)F)c1` as the molecule, how does the MRC [1] read?
**A.** >64 µg/mL

**Q.** For COLISTIN, which MIC [13] is on record?
**A.** 8 µg/mL

**Q.** And the MIC [14]?
**A.** 32 µg/mL

**Q.** And the MIC [15]?
**A.** 32 µg/mL

**Q.** And the MIC [16]?
**A.** 4 µg/mL

**Q.** And the MIC [17]?
**A.** 8 µg/mL

**Q.** What about the MIC [3] of the same molecule?
**A.** 8 µg/mL

**Q.** What about the MIC [18] of the same molecule?
**A.** 8 µg/mL

**Q.** And the MIC [19]?
**A.** 8 µg/mL

**Q.** With `Cc1ccccc1Nc1nc2nonc2nc1Nc1ccccc1C` as the molecule, how does the MRC [1] read?
**A.** 8 µg/mL

**Q.** For `COc1cccc(Nc2nc3nonc3nc2Nc2cccc(OC)c2)c1`, which MRC [1] is on record?
**A.** 2 µg/mL

**Q.** Which MRC [1] does the source give for `COc1ccc(Nc2nc3nonc3nc2O)cc1` here?
**A.** >64 µg/mL

**Q.** With `Fc1cccc(Nc2nc3nonc3nc2Nc2cccc(F)c2)c1` as the molecule, how does the selectivity ratio [2] read?
**A.** 40

**Q.** And the MRC [1]?
**A.** 0.5 µg/mL

**Q.** And the MIC [3]?
**A.** > 64 µg/mL

**Q.** What about the GI50 [4] of the same molecule?
**A.** 20 µg/mL (≈ 58.8 µM)

**Q.** Which MRC [1] does the source give for `COc1cccc(Nc2nc3nonc3nc2O)c1` here?
**A.** 16 µg/mL

**Q.** For `FC(F)(F)Oc1cccc(Nc2nc3nonc3nc2Nc2ccccc2)c1`, which MRC [1] is on record?
**A.** 1 µg/mL

**Q.** For `Oc1nc2nonc2nc1Nc1ccccc1OC(F)(F)F`, which MRC [1] is on record?
**A.** >64 µg/mL

**Q.** With `Cc1cccc(Nc2nc3nonc3nc2O)c1` as the molecule, how does the MRC [1] read?
**A.** 8 µg/mL

**Q.** With `Fc1ccc(Nc2nc3nonc3nc2Nc2ccc(F)cc2)cc1` as the molecule, how does the selectivity ratio [2] read?
**A.** 19

**Q.** And the MRC [1]?
**A.** 0.5 µg/mL

**Q.** What about the MIC [3] of the same molecule?
**A.** > 64 µg/mL

**Q.** And the GI50 [4]?
**A.** 9.4 µg/mL (≈ 27.6 µM)

**Q.** Which MRC [1] does the source give for `O=c1[nH]c2nonc2nc1Nc1cccc(Cl)c1` here?
**A.** 16 µg/mL

**Q.** For `Cc1cccc(Nc2nc3nonc3nc2Nc2cccc(OC(F)(F)F)c2)c1`, which selectivity ratio [2] is on record?
**A.** 24

**Q.** What about the MRC [1] of the same molecule?
**A.** 0.5 µg/mL

**Q.** And the MIC [3]?
**A.** > 64 µg/mL

**Q.** What about the GI50 [4] of the same molecule?
**A.** 12 µg/mL (≈ 29.8 µM)

**Q.** Which results are given for `c1ccc(Nc2nc3nonc3nc2Nc2ccccc2)cc1`?
**A.** selectivity ratio [2]: 8.8; MRC [1]: 0.5 µg/mL; MIC [3]: > 64 µg/mL; GI50 [4]: 4.4 µg/mL (≈ 14.5 µM)

**Q.** For `Cc1ccc(Nc2nc3nonc3nc2Nc2ccc(C)cc2)cc1`, which selectivity ratio [2] is on record?
**A.** 22

**Q.** And the MRC [1]?
**A.** 0.5 µg/mL

**Q.** What about the MIC [3] of the same molecule?
**A.** > 64 µg/mL

**Q.** What about the GI50 [4] of the same molecule?
**A.** 11 µg/mL (≈ 33.1 µM)

**Q.** What does the source list for `FC(F)(F)Oc1ccc(Nc2nc3nonc3nc2Nc2ccc(OC(F)(F)F)cc2)cc1`?
**A.** selectivity ratio [2]: 23; MRC [1]: 0.25 µg/mL; MIC [3]: > 64 µg/mL; GI50 [4]: 5.7 µg/mL (≈ 12.1 µM)
